Measurements reported in a melting point compilation (Tetko et al.; mined from patent text by program, amines drawn as free bases though some values may be those of a salt).

Row | SMILES | melting point
1 | CC(C)(O)C[C@@H]1CO[C@](C)([C@H]2CC[C@H]3C(=O)CCC[C@@]32C)C1 | 82 °C
2 | O=C1CN=C(C2CCCCC2)c2cc(Cl)ccc2N1 | 210 °C
3 | Nc1ccc(Oc2ccccc2)cc1SC(c1ccc2c(c1)OCO2)C(O)C(=O)O (stereo not given) | 158 to 159 °C
4 | O=C1Cc2cc3c(cc2C(c2ccc([N+](=O)[O-])cc2Cl)=NN1)OCO3 | 202 to 204 °C
5 | COC(=O)CCSCc1csc(NC(N)=NCC(F)(F)F)n1 | 96 to 98 °C
6 | Cc1cc(C2=CCCCC2)c(OP2OCC(C)(C)CO2)c(C(C)(C)C)c1 | 97 to 102 °C
7 | CN(C)CCc1ccc(O)c2[nH]ncc12 | 223 to 227 °C
8 | CCOC(=O)CCCCC(NS(=O)(=O)c1ccc(F)cc1)c1ccc2ccccc2c1 (stereo not given) | 91 to 93 °C
9 | Cc1cc(C)n(-c2ncc(C)c(Nc3ccc(Cl)cc3)n2)n1 | 179 to 182 °C
10 | CCc1c(O)cc(=O)[nH]c1C | 360 °C
11 | CCCCCCCCCCCCCCCCSCC(CO)OC(=O)NC (stereo not given) | 53 to 55 °C
12 | CCOC(=O)c1cn(C)c2cc(CC)ccc2c1=O | 92 to 94 °C
13 | CC(C)n1c(=O)n(C)c(=O)c2c(SCCCO)n(C3Cc4ccccc4C3)cc21 | 123 to 125 °C
14 | CN1CCC(C2c3ccccc3C=Cc3ccc(Br)cc32)CC1 (single isomer, unassigned; (+)) | 178 to 180 °C
15 | Cc1ccc(S(=O)(=O)Nc2cc(C(C)(C)C)c(O)c(C(C)(C)C)c2)cc1 | 160 to 180 °C
16 | CC(C)(C)OC(=O)CN1CC(c2ccco2)SCC(N)C1=O (stereo not given) | 90 to 92 °C
17 | O=Cc1c2c(cc3ccccc13)Cc1ccccc1-2 | 104 to 106 °C
18 | Cc1ccc(S(=O)(=O)O[C@H](Cc2ccccc2)C(=O)NCCc2ocnc2C(=O)OCc2ccccc2)cc1 | 96 to 98 °C
19 | CCOc1ccc(OCC(F)(F)F)cc1C(=O)O | 101 to 103 °C
20 | CCO[C@@H](Cc1ccc(O)cc1)C(=O)O | 105 °C
21 | O=C1N(Cc2ccc(-c3ccccn3)cc2)c2ccccc2C12COc1cc3c(cc12)CCO3 (stereo not given) | 217 to 219 °C

Row | SMILES | melting point
22 | CN1C(=S)N(c2ccc(C#N)c(C(F)(F)F)c2)C(=N)C12CCCC2 | 165 to 166 °C
23 | CN1CC=C(c2cccc3[nH]ccc23)CC1 | 164 °C
24 | CCC(=O)OCOC(=O)C1=C(C)NC(C)=C(C(=O)OC)C1c1cccc(Cl)c1Cl (stereo not given) | 124 to 126 °C
25 | c1ccc(-c2ccc(Nc3nccc(-c4ccc(-c5ccc(N(c6ccccc6)c6ccccc6)cc5)cc4)n3)cc2)cc1 | > 300 °C
26 | N#Cc1nn(-c2c(Cl)cc(C(F)(F)F)cc2Cl)c(N2CCOCC2)c1S(=O)(=O)C(F)(F)F | 167 to 169 °C
27 | COc1ccc(C(=O)Cc2ccnc(NC(=O)c3ccccc3)c2)cc1 | 136 to 139 °C
28 | O=C(O)[C@H](Cc1ccccc1)NC(=O)N1CCOCC1 | 57 to 60 °C
29 | CN1CCC(=O)C(C(c2ccc(Cl)cc2)c2ccc(Cl)cc2)C1 (stereo not given) | 146 to 147 °C
30 | O=C([C@@H]1CCCN1S(=O)(=O)c1ccc2ccccc2c1)N1C[C@@H](c2ccc(Cl)cc2)Sc2ccccc21 | 147 to 151 °C
31 | COc1cc(C=O)c(OC)c2ccccc12 | 120 to 123 °C
32 | CCCCOCCOc1ccc(-c2ccc3c(c2)C=C(C(=O)Nc2ccc(S(=O)Cc4nccn4CCCC(=O)OCC)cc2)CCN3CC(C)C)cc1 (stereo not given) | 134 to 136 °C
33 | Cc1ccc2c3c(ccc2n1)OC[C@H](CNC[C@H]1CCc2c(c4cc(F)ccc4n2C)C1)O3 | 127 to 129 °C
34 | Cc1cc(S(=O)(=O)c2ccc(N)cc2)cc(Br)n1 | 189 to 191 °C
35 | C[C@@H]1CN(c2ccc(N/C=C3\C(=O)NC(=O)c4ccc(-c5ccoc5)cc43)cc2)C[C@H](C)N1C | 204 to 205 °C
36 | C#Cc1cccc(Nc2c(C#N)cnc3ccc(OCCOC)c(OCCOC)c23)c1 | 150 to 153 °C
37 | c1ccc(-c2ncc(-c3cnc(-c4ccccc4)[nH]3)cn2)cc1 | 253 °C
38 | CC(Cc1c[nH]c2ccccc12)(NC(=O)OC1C2CC3CC(C2)CC1C3)C(=O)NCCc1nc[nH]n1 (stereo not given) | 124 to 128 °C
39 | COc1cc(OC)c(/C=C/S(=O)(=O)Cc2cnc(OC)c([N+](=O)[O-])c2)c(OC)c1 | 183 to 186 °C
40 | Cc1nc(Cn2c(NC3CCN(CCc4c(C)nc5sccn5c4=O)CC3)nc3ccccc32)cs1 | 130 °C
41 | COC(=O)c1ccc(Cc2cccc3ccc(C(=O)NCC(C)C)cc23)c(OC)c1 | 174 to 175 °C

The remaining lines, values ahead:

Row | melting point | SMILES
42 | 131 to 132 °C | CCCC/C(=C\C(=O)O)c1cnc(CCCC)n1Cc1ccccc1Cl
43 | 123 to 129 °C | Cc1cccc(Nc2ncnc3ccc(CSc4nc5ccccc5[nH]4)cc23)c1
44 | 101 to 103 °C | COC(=O)c1cc(Oc2c(Cl)cc(Cl)cc2Cl)ccc1[N+](=O)[O-]
45 | 245 °C | CC(=O)c1c(NC(=O)c2ccc([N+](=O)[O-])cc2)cccc1C(F)(F)F
46 | 101 to 102 °C | COC(=O)c1sc2ccccc2c1CBr
47 | 132 to 133 °C | O=C(O)Cc1cccc(OCCCc2cn(-c3ccc(C(F)(F)F)cn3)nc2-c2ccccc2)c1
48 | 175 °C | CC(=O)OC1CSC(Br)C(OC(C)=O)C1OC(C)=O (stereo not given)
49 | 133 to 134 °C | Cc1[nH]ncc1C(=O)Nc1ccc(OCC(C)(C)C)c(C#N)c1
50 | 147 to 150 °C | O[C@H]1CC[C@@H](CCN2CCC(=C3c4ccc(F)cc4Sc4ccc(C(F)(F)F)cc43)CC2)CC1
51 | 150 °C | O=C(O)c1cc(S(=O)(=O)NC2CCCCC2)cc2c1OCCO2
52 | 169 to 171 °C | CC(=O)CC(=O)N1N=C(c2ccc([N+](=O)[O-])cc2)c2cc3c(cc2CC1C)OCO3 (stereo not given)
53 | 68 to 70 °C | CCCCCCCCCCCCCCOc1ccc(C(=O)Cl)cc1OCCCCCCCCCCCCCC
54 | 109 to 110 °C | CCC(C)(C)C1=CC(=CC(=O)O)C=C(C(C)(C)CC)C1=O
55 | 185 to 186 °C | CN1Cc2cccc3[nH]cc(c23)C1
56 | 109 to 110 °C | O=S(=O)(NCCc1ccc(CN2CCCCC2)cc1)c1ccc(Br)cc1
57 | 114 to 124 °C | O=C(c1nnc(-c2ccccc2)o1)N1CC(Oc2ccc(CN3CC4(COC4)C3)c(Cl)c2)C1
58 | 136 °C | CCOC(=O)C(C(=O)CCCCC(C)C)C1c2ccccc2C(=O)N1c1ccc2ccc(Cl)nc2n1 (stereo not given)
59 | 170 to 172 °C | CC(O)c1cccc(-c2ccc3nc(-c4ccc(Cl)cc4)cn3c2)c1Cl (stereo not given)
60 | 218 to 220 °C | Cc1c(-c2ccc(C[C@H](NC(=O)c3c(F)cccc3C(F)(F)F)C(=O)O)cc2)c(=O)n(C)c(=O)n1C
61 | 76 °C | NC(=O)CCNc1ccc(OC(F)(F)F)cc1

Row | melting point | SMILES
62 | 234 to 236 °C | O=C1Cc2cc3c(cc2C(c2ccco2)=NN1)OCO3
63 | 72 to 75 °C | C=CCON=C(CCC)C1=C(O)CC(c2ccc(C(=O)SCC)cc2)CC1=O (stereo not given)
64 | 140 to 142 °C | CCCC(=O)NCC1(C)Cc2c(C)c(N3CCN(c4ccc(OC)cc4)CC3)c(C)c(C)c2O1 (stereo not given)
65 | 195 °C | CC(C)c1ccc(C2c3[nH]c4ccccc4c3CCN2C(=O)C=Cc2cccc([N+](=O)[O-])c2)cc1 (stereo not given)
66 | 38 to 41 °C | CCCCCCCCCCCCCCOCCCSCCCO
67 | 143 to 145 °C | Cc1nc(Cc2ccccc2N)n[nH]1
68 | 70 to 72 °C | COC(=O)C(C)Oc1cccc2cccnc12 (stereo not given)
69 | 128 to 130 °C | Cc1cc(-c2ncn(Cc3ccc(F)cc3)n2)sc1C(=O)NCc1ccccc1
70 | 69 to 71 °C | Cc1ccc(OCc2ccccc2)c(C(CCO)c2ccccc2)c1 (stereo not given)
71 | 148 to 150 °C | COC(=O)COc1ccc(-c2cccc3sc4ccccc4c23)cc1
72 | 294 to 296 °C | CC1(C)CCC(C)(C)c2cc3[nH]c(-c4ccc(C(=O)O)cc4)cc3cc21
73 | 136 °C | COC(=O)C(c1ccccc1)(c1ccccc1)c1c[nH]c(C)n1
74 | 118 to 120 °C | Cn1nc(-c2c(F)cccc2Cl)nc1-c1ccc(Cl)nc1
75 | 78 to 81 °C | CCON=Cc1cnnc2ccccc12
76 | 193 to 195 °C | Fc1cccc2cc3cccc(F)c3nc12
77 | 104 to 105 °C | Cn1c(C#N)cc(Br)c1Br
78 | 210 to 211 °C | CSc1nc(N)cc(OCCOCP(=O)(O)O)n1
79 | 227 to 231 °C | CCOc1cc(OCC)cc(-c2c(Cl)ncn2-c2ccc(S(C)(=O)=O)cc2)c1
80 | 156 to 158 °C | Nc1ccc(CCN2CCN(c3ccc(N)cc3)CC2)cc1
81 | 202 °C | Nc1cc(Cl)cc(N)c1[N+](=O)[O-]

Row | melting point | SMILES
82 | 118 to 119 °C | O=C(O)CCc1cn(Cc2ccc(OCc3ccsc3)cc2)cc1-c1ccccc1
83 | 71 to 72 °C | CCOC(=O)c1ccc(/C=C(\C)c2ccc3c(c2)OCCCC3)cc1
84 | 168 to 170 °C | O=C(O)[C@@H]1C[C@H]1Sc1nc2ccccc2cc1-c1ccccc1 (relative stereo)
85 | 246 °C | N#Cc1c(N)ccc2cc(Cl)cnc12
86 | 168 to 170 °C | O=C(Nc1c(F)cccc1F)c1ccc(-n2nc(C(F)(F)F)cc2C2CC2)c(F)c1
87 | 292 to 300 °C | CC12C=CC(=O)CC1CCC1C2CCC2(C)C(C(=O)NC3(C#N)CCCCC3)CCC12 (stereo not given)
88 | 115 to 116 °C | Cc1cccc(-n2ccc(=O)c(-c3ccnn3-c3ccccc3)n2)c1
89 | 138 to 140 °C | CCCCc1cnc(SC)[nH]c1=O
90 | 148 to 149 °C | CCOC(=O)c1cnn2c(-c3ccccc3C(F)(F)F)ccnc12
91 | 120 to 122 °C | CC1CCC(N2c3ccccc3Oc3c(Cl)cccc32)=N1 (stereo not given)
92 | 206 °C | CCOC(=O)c1ccc(N2CCN(Cc3cc(C)c4c(c3)NC(=O)C(C)O4)CC2)nc1 (stereo not given)
93 | 251 to 253 °C | Cc1cc2c(cc1C)C(O)(c1ccccc1Cl)C(=O)N2 (stereo not given)
94 | 152 °C | CCN1C(=O)C(N(CC(F)(F)C(F)(F)F)C(=O)C(C)C(N)=O)COc2ccccc21 (stereo not given)
95 | 99 to 100 °C | Cc1c(OC(F)F)ccnc1CSc1nc2ccccc2[nH]1
96 | 122 to 124 °C | CCC(CC)N1CCC(CNc2ccc(Cl)cc2C(=O)Nc2ccc(C)cn2)CC1
97 | 184 to 186 °C | O=C1Nc2nncn2CC1c1ccccc1 (stereo not given)
98 | 245 to 248 °C | CCn1cc(C(=O)O)c(=O)c2cc(F)c(N3CC(C)C(CN)C3)cc21 (stereo not given)
99 | 144 to 145 °C | Cc1csc2ncc(C(O)CCc3ccccc3)n12 (stereo not given)
100 | 92 °C | O=C(Cl)c1ccc(C(=O)c2ccccc2)cc1
